Measured values reported in ChEMBL document CHEMBL2434959, “Identification and characterization of novel indole based small molecules as anticancer agents through SIRT1 inhibition” (Eur J Med Chem, 2013).
Activity calls are given as the source filed them. No cut-off for these calls is given here.

Columns and labels:
LNCaP = test: Growth inhibition of human LNCAP cells at 10 uM after 24 hrs by MTT assay; assay type: functional; settings: read-out: GI
MDA-MB-231 = test: Growth inhibition of human MDA-MB-231 cells at 10 uM after 24 hrs by MTT assay; assay type: functional; settings: MDA-MB-231, 24 h, read-out: GI
Rattus norvegicus [1] = test: Inhibition of testosterone propionate-induced prostate hyperplasia in Wistar rat assessed as retention of normal cell morphology at 10 mg/kg, ip co-administered with testosterone propionate for 14 days by hematoxylin/eosin staining method; assay type: functional, organism-based; design: dose 10 mg/kg
Rattus norvegicus [2] = test: Inhibition of testosterone propionate-induced prostate hyperplasia in Wistar rat at 10 mg/kg, ip co-administered with testosterone propionate for 14 days; assay type: functional; settings: Prostate gland, 336 h, route intraperitoneal
Rattus norvegicus [3] = test: Inhibition of testosterone propionate-induced prostate hyperplasia in Wistar rat assessed as ratio of prostate weight to body weight at 10 mg/kg, ip co-administered with testosterone propionate for 14 days (reference value: 3.1634 +/- 0.1264 no unit); assay type: functional, Prostate gland; settings: route intraperitoneal
Rattus norvegicus [4] = test: Inhibition of testosterone propionate-induced prostate hyperplasia in Wistar rat assessed as prostate weight at 10 mg/kg, ip co-administered with testosterone propionate for 14 days (reference value: 0.838 +/- 0.0293 g); assay type: functional, Prostate gland; settings: route intraperitoneal
Rattus norvegicus [5] = test: Inhibition of testosterone propionate-induced prostate hyperplasia in Wistar rat assessed as reduction in SIRT1 mRNA level in prostate tissue at 10 mg/kg, ip co-administered with testosterone propionate for 14 days by RT-PCR analysis; assay type: functional, organism-based; design: dose 10 mg/kg; settings: Prostate gland
Rattus norvegicus [6] = test: Inhibition of testosterone propionate-induced prostate hyperplasia in Wistar rat assessed as seminal vesicle weight at 10 mg/kg, ip co-administered with testosterone propionate for 14 days (reference value: 1.6071 +/- 0.0821 g); assay type: functional, Prostate gland; settings: route intraperitoneal
[7] = target: T1, NAD-dependent protein deacetylase sirtuin-1 (Homo sapiens) (UniProt Q96EB6); test: Inhibition of recombinant human SIRT1 using AMC-Arg-His-Lys-Lys(Ac) as substrate at 40 uM after 45 mins by fluorimetric assay
T1 sequence (whole entry): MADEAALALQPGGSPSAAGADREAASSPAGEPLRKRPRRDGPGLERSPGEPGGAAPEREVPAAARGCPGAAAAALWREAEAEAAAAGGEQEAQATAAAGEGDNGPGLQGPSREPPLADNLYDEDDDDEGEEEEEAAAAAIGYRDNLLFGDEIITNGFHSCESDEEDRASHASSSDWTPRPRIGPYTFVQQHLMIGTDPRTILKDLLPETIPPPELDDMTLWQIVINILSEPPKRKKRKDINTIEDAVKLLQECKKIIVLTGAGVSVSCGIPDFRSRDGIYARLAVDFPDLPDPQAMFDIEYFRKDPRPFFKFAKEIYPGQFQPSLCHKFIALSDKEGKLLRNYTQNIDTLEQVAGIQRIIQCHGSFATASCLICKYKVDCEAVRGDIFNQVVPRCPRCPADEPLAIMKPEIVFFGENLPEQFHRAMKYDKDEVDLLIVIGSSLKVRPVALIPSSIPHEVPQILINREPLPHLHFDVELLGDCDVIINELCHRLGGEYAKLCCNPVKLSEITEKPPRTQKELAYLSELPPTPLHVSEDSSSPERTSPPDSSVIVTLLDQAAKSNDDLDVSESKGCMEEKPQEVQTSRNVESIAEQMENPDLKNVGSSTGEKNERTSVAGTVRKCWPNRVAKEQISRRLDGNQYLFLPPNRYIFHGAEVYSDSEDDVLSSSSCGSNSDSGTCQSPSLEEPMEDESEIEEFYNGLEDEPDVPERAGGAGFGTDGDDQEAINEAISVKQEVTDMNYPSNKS

[8] = Lipophilicity, log P of the compound; assay type: physicochemical; settings: octanol/water
Rattus norvegicus [9] = test: Inhibition of testosterone propionate-induced prostate hyperplasia in Wistar rat assessed as reduction in histoarchitecture disruption at 10 mg/kg, ip co-administered with testosterone propionate for 14 days by hematoxylin/eosin staining method; assay type: functional, organism-based; design: dose 10 mg/kg; settings: Prostate gland
K562 = test: Growth inhibition of human K562 cells at 10 uM after 24 hrs by MTT assay; assay type: functional; settings: K562, 24 h, read-out: GI
Rattus norvegicus [10] = test: Inhibition of testosterone propionate-induced prostate hyperplasia in Wistar rat assessed as seminal vesicle weight at 5 mg/kg, ip co-administered with testosterone propionate for 14 days (reference value: 1.6071 +/- 0.0821 g); assay type: functional, Prostate gland; settings: route intraperitoneal
Rattus norvegicus [11] = test: Inhibition of testosterone propionate-induced prostate hyperplasia in Wistar rat assessed as ratio of prostate weight to body weight at 5 mg/kg, ip co-administered with testosterone propionate for 14 days (reference value: 3.1634 +/- 0.1264 no unit); assay type: functional, Prostate gland; settings: route intraperitoneal
Rattus norvegicus [12] = test: Inhibition of testosterone propionate-induced prostate hyperplasia in Wistar rat assessed as prostate weight at 5 mg/kg, ip co-administered with testosterone propionate for 14 days (reference value: 0.838 +/- 0.0293 g); assay type: functional, Prostate gland; settings: route intraperitoneal
Rattus norvegicus [13] = test: Inhibition of testosterone propionate-induced prostate hyperplasia in Wistar rat assessed as retention of normal cell morphology at 5 mg/kg, ip co-administered with testosterone propionate for 14 days by hematoxylin/eosin staining method; assay type: functional, organism-based; design: dose 5 mg/kg
Rattus norvegicus [14] = test: Inhibition of testosterone propionate-induced prostate hyperplasia in Wistar rat assessed as reduction in histoarchitecture disruption at 5 mg/kg, ip co-administered with testosterone propionate for 14 days by hematoxylin/eosin staining method; assay type: functional, organism-based; design: dose 5 mg/kg; settings: Prostate gland

SMILES	logP [8]	inhibition of growth at 10 µM (MDA-MB-231) [%]	further results
CC(C)Sc1nnc(-c2c(CN3CCCCC3C)c3ccccc3n2C)n1-c1ccccc1 (stereo not given)	5.95		
CC(C)Sc1nnc(-c2c(CN3CCC(N4CCCC4)CC3)c3ccccc3n2C)n1-c1ccccc1	5.16		
CC(C)Sc1nnc(-c2c(CNCC3CC3)c3ccccc3n2C)n1-c1ccccc1	5.24		inhibition of growth at 10 µM (K562): > 50%
CC1CN(Cc2c(-c3nnc(SC(C)C)n3-c3ccccc3)n(C)c3ccccc23)CC(C)O1 (stereo not given)	5.13		
CC(C)Sc1nnc(-c2c(CN3CCOCC3)c3cc(F)ccc3n2C)n1-c1ccccc1	4.65		inhibition of growth at 10 µM (K562): 88%
CC1CCCN(Cc2c(-c3nnc(SC(C)C)n3-c3ccccc3)n(C)c3ccc(F)cc23)C1 (stereo not given)	6.18	> 50	
COc1cccc(CNCc2c(-c3nnc(SC(C)C)n3-c3ccccc3)n(C)c3ccccc23)c1	6.27	> 50	
COc1cc(NCc2c(-c3nnc(SC(C)C)n3-c3ccccc3)n(C)c3ccc(F)cc23)cc(OC)c1OC	5.96		inhibition of growth at 10 µM (K562): > 50%
CC(C)Sc1nnc(-c2c(CNCCCN3CCOCC3)c3cc(F)ccc3n2C)n1-c1ccccc1	4.38		
CC(C)Sc1nnc(-c2c(CNCCN3CCCC3)c3ccccc3n2C)n1-c1ccccc1	4.83		
CC(C)Sc1nnc(-c2c(CN3CCOCC3)c3ccccc3n2C)n1-c1ccccc1	4.5		
CC(C)Sc1nnc(-c2c(CNc3nc4ccccc4[nH]3)c3ccccc3n2C)n1-c1ccccc1	5.94		
CC(C)(C)NC(=O)[C@H]1CC[C@H]2[C@@H]3CC[C@H]4NC(=O)C=C[C@]4(C)[C@H]3CC[C@]12C [FINASTERIDE]			Activity (Rattus norvegicus [10]): 0.9051 g; Ratio (Rattus norvegicus [11]): 0.002471; Activity (Rattus norvegicus [12]): 0.556 g; inhibition (Rattus norvegicus [13]): Active; inhibition (Rattus norvegicus [14]): Active
CC1CCCN(Cc2c(-c3nnc(SC(C)C)n3-c3ccccc3)n(C)c3ccccc23)C1 (stereo not given)	6.03	> 50	
CC(C)Sc1nnc(-c2c(CNCC3CC3)c3cc(F)ccc3n2C)n1-c1ccccc1	5.4	> 50	inhibition of growth at 10 µM (K562): > 50%
CC(C)Sc1nnc(-c2c(CNCCN3CCOCC3)c3cc(F)ccc3n2C)n1-c1ccccc1	4.28		

More lines, main results first:

logP [8]	SMILES	inhibition of growth at 10 µM (MDA-MB-231) [%]	further results
6.42	COc1ccc(CNCc2c(-c3nnc(SC(C)C)n3-c3ccccc3)n(C)c3ccc(F)cc23)cc1	> 50	inhibition of growth at 10 µM (LNCaP): > 50%; inhibition (Rattus norvegicus [1]): Active; inhibition in vivo at 10 mg/kg (Rattus norvegicus [2]): 70.5%; Ratio (Rattus norvegicus [3]): 0.002298; Activity (Rattus norvegicus [4]): 0.537 g; inhibition (Rattus norvegicus [5]): Active; Activity (Rattus norvegicus [6]): 0.619 g; inhibition [7]: 70%; inhibition (Rattus norvegicus [9]): Active
4.81	CC(C)Sc1nnc(-c2c(CNC3CC3)c3ccccc3n2C)n1-c1ccccc1		
4.99	CC(C)Sc1nnc(-c2c(CNCCN3CCCC3)c3cc(F)ccc3n2C)n1-c1ccccc1		
4.52	COCCNCc1c(-c2nnc(SC(C)C)n2-c2ccccc2)n(C)c2ccc(F)cc12		inhibition of growth at 10 µM (LNCaP): > 50%
5.96	CC1CCN(Cc2c(-c3nnc(SC(C)C)n3-c3ccccc3)n(C)c3ccccc23)CC1		inhibition of growth at 10 µM (K562): 88%
4.22	CC(C)Sc1nnc(-c2c(CNc3cnccn3)c3ccccc3n2C)n1-c1ccccc1		
6.27	COc1ccc(CNCc2c(-c3nnc(SC(C)C)n3-c3ccccc3)n(C)c3ccccc23)cc1	> 50	
5.8	COc1cc(NCc2c(-c3nnc(SC(C)C)n3-c3ccccc3)n(C)c3ccccc23)cc(OC)c1OC		
4.97	CC(C)Sc1nnc(-c2c(CNC3CC3)c3cc(F)ccc3n2C)n1-c1ccccc1	> 50	inhibition of growth at 10 µM (K562): > 50%
6.12	CC1CCN(Cc2c(-c3nnc(SC(C)C)n3-c3ccccc3)n(C)c3ccc(F)cc23)CC1	> 50	inhibition of growth at 10 µM (LNCaP): > 50%
4.36	COCCNCc1c(-c2nnc(SC(C)C)n2-c2ccccc2)n(C)c2ccccc12		
4.22	CC(C)Sc1nnc(-c2c(CNCCCN3CCOCC3)c3ccccc3n2C)n1-c1ccccc1		
6.42	COc1cccc(CNCc2c(-c3nnc(SC(C)C)n3-c3ccccc3)n(C)c3ccc(F)cc23)c1	> 50	
4.12	CC(C)Sc1nnc(-c2c(CNCCN3CCOCC3)c3ccccc3n2C)n1-c1ccccc1		
